According to patent US20230374038A1, “MODULATORS OF CYSTIC FIBROSIS TRANSMEMBRANE CONDUCTANCE REGULATOR” (VERTEX PHARMACEUTICALS INCORPORATED, priority 2020, published 2023):

Molecular target: T1, CFTR (Homo sapiens, UniProt P13569, DEL508-508)
T1 construct: endogenous in cells; host or cells: primary human bronchial epithelial cells, F508del/MF genotype
Experiment: HBE Assay: Ussing chamber assay of CFTR-mediated short-circuit currents in F508del/MF-HBE cells with 1 μM Ivacaftor
Type: cell-based
Conditions: 20% human serum; for EC50 / HBE Max Activity / Emax: 18-24 hours; for Emax: compared to known Vertex corrector with 18 μM Tezacaftor and 1 μM Ivacaftor, read-out: HBE Max activity (%); for HBE Activity at 10 μM: single fixed concentration of 10 μM
Outline: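 F508del/MF-HBE cells at air-liquid interface >14 days were incubated 18-24 h at 37° C with corrector (concentration range or fixed 10 μM) plus 1 μM Ivacaftor in 20% human serum, compounds kept throughout. Ussing chamber, Vhold=0 mV, 37° C, apical amiloride 30 μM; ISC (μA/cm^2) from peak 20 μM forskolin response to steady state after CFTR inhibitor cocktail.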

[1] = range of concentrations with 1 μM Ivacaftor

T1 sequence (P13569 with tags, fused parts or gaps DEL508-508): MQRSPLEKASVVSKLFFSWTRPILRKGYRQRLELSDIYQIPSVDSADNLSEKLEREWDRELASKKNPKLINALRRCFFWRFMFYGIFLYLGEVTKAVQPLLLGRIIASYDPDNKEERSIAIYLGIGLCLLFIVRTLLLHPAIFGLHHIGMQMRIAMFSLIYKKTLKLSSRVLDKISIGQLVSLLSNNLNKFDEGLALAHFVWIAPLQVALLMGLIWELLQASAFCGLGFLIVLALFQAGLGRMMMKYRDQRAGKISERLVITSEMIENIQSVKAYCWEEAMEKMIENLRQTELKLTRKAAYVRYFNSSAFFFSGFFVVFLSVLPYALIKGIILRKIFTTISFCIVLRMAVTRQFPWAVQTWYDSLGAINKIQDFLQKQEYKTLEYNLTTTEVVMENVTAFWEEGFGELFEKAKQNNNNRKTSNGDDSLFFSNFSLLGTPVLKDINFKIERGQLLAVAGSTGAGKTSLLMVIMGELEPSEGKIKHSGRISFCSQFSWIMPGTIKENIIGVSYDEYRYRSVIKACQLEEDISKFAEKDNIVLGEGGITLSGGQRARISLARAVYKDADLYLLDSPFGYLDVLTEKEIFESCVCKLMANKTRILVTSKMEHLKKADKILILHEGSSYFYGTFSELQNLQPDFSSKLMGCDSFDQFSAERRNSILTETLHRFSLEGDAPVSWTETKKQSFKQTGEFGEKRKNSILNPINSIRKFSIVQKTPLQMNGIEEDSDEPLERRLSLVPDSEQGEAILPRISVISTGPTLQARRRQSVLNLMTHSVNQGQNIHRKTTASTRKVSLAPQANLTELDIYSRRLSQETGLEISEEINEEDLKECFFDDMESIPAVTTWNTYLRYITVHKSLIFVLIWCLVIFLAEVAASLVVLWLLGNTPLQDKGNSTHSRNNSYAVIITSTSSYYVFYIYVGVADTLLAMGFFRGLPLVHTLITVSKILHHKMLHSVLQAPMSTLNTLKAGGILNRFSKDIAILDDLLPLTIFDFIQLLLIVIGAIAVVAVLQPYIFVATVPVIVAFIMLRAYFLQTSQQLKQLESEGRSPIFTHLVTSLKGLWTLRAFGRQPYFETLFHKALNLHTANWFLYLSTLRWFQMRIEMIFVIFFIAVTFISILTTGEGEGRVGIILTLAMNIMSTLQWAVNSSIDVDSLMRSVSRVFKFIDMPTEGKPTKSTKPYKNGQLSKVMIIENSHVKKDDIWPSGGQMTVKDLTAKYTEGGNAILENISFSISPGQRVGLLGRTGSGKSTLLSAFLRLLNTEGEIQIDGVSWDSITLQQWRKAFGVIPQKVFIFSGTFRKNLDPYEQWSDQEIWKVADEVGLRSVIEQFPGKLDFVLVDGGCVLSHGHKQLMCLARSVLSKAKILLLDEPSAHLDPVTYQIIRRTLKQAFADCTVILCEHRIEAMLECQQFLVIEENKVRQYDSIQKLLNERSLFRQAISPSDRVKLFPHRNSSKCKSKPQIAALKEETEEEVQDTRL

Compound	EC50 (with 1 μM Ivacaftor) [µM]	HBE Max Activity (with 1 μM Ivacaftor)	EC50 [1] [µM]	Emax (with 1 μM Ivacaftor) [%]	HBE Activity at 10 μM (with 1 μM Ivacaftor)
Cc1cccc(CC2CCCCC2)c1-c1nc2nc(c1C)OC[C@@H](CC(C)(C)C)N(Cc1ccc(N3CCCCC3)cn1)C(=O)c1cccc(c1)S(=O)(=O)N2 (atropisomer, axis not shown) [Compound 307]	< 1	+++ (+++ is >600%)	–	–	–
Cc1cccc(C)c1-c1nc2nc(c1F)OC[C@@H](CC(C)(C)C)N(Cc1ncc(OC3CCC3)cn1)C(=O)c1cccc(c1)S(=O)(=O)N2 [Compound 336]	–	–	< 1	> 60	–
Cc1cccc(OC(C)C)c1-c1nc2nc(c1C)OC[C@@H](CC(C)(C)C)N(Cc1cnc(N(C)CC(C)(C)C)cn1)C(=O)c1cccc(c1)S(=O)(=O)N2 [Compound 222]	–	–	–	–	+++ (+++ is >600%)
Cc1cccc(CC2CCCCC2)c1-c1nc2nc(c1C)OC[C@@H](CC(C)(C)C)N(Cc1ncc(N3CCOCC3)cn1)C(=O)c1cccc(c1)S(=O)(=O)N2 (atropisomer, axis not shown) [Compound 305]	< 1	+++ (+++ is >600%)	–	–	–
Cc1cccc(C)c1-c1nc2nc(c1C)OC[C@@H](CC(C)(C)C)N(Cc1ccc(N3CCCCC3)cn1)C(=O)c1cccc(c1)S(=O)(=O)N2 [Compound 85]	< 1	+++ (+++ is >600%)	–	–	–
Cc1cccc(CC2CCCCC2)c1-c1nc2nc(c1C)OC[C@@H](CC(C)(C)C)N(Cc1nccc(N(C)C)n1)C(=O)c1cccc(c1)S(=O)(=O)N2 (atropisomer, axis not shown) [Compound 261]	< 1	+++ (+++ is >600%)	–	–	–
Cc1cccc(C)c1-c1nc2nc(c1C)OC[C@@H](CC(C)(C)C)N(Cc1ncc(N3CCC(C)(C)C3)cn1)C(=O)c1cccc(c1)S(=O)(=O)N2 [Compound 191]	< 1	+++ (+++ is >600%)	–	–	–
Cc1cccc(C)c1-c1nc2nc(c1F)OC[C@@H](CC(C)C)N(Cc1ncc(OC3CCC3)cn1)C(=O)c1cccc(c1)S(=O)(=O)N2 [Compound 338]	–	–	< 1	> 60	–
Cc1cccc(CC2CCCCC2)c1-c1nc2nc(c1C)OC[C@@H](CC(C)(C)C)N(Cc1ncc(C3CCCCC3)cn1)C(=O)c1cccc(c1)S(=O)(=O)N2 (atropisomer, axis not shown) [Compound 276]	< 1	+++ (+++ is >600%)	–	–	–
Cc1cccc(CC(C)C)c1-c1nc2nc(c1C)OC[C@@H](CC(C)(C)C)N(Cc1ncc(N(C)CC(C)(C)C)cn1)C(=O)c1cccc(c1)S(=O)(=O)N2 (atropisomer, axis not shown; (M)) [Compound 210, (5M,11R)-11-(2,2-dimethylpropyl)-12-({5-[(2,2-dimethylpropyl)(methyl)amino]pyrimidin-2-yl}methyl)-7-methyl-6-[2-methyl-6-(2-methylpropyl)phenyl]-9-oxa-2λ^6-thia-3,5,12,19-tetraazatricyclo[12.3.1.14,8]nonadeca-1(17),4(19),5,7,14(18),15-hexaene-2,2,13-trione]	–	–	–	–	+++ (+++ is >600%)
Cc1cccc(C)c1-c1nc2nc(c1F)OC[C@@H](CC(C)(C)C)N(Cc1ncc(N3CCC(C)(C)C3)cn1)C(=O)c1cccc(c1)S(=O)(=O)N2 [Compound 341]	–	–	< 1	> 60	–
Cc1cccc(CC2CCCCC2)c1-c1nc2nc(c1C)OC[C@@H](CC(C)(C)C)N(Cc1ncc(N3CCOCC3)cn1)C(=O)c1cccc(c1)S(=O)(=O)N2 (atropisomer, axis not shown) [Compound 306]	< 1	+++ (+++ is >600%)	–	–	–
Cc1cccc(CC2CCCCC2)c1-c1nc2nc(c1C)OC[C@@H](CC(C)(C)C)N(Cc1nccc(N3CCOCC3)n1)C(=O)c1cccc(c1)S(=O)(=O)N2 (atropisomer, axis not shown) [Compound 263]	< 1	+++ (+++ is >600%)	–	–	–
